Test system: Penicillium digitatum (Pd)
Assay: Biocontrol efficacy on post-harvest green mold decay of harvested oranges (online spraying, drying tunnel, storage)
Assay type: in vivo
Details: online spraying at 2 L/tonne of fruits, dried in drying tunnel, observed 36 days after storage, amounts per treatment as in Table 1
Protocol: A tank mix bio-control combination was prepared consisting of Candida oleophila strain O and sodium bicarbonate. […] The microbial component was applied as water dispersible granules. The concentration of C. oleophila strain O was 2.33 g/L (0.23% w/v) and the biologically effective amount of the strain was 3×10^10 cfu/gm. The concentration of the C. oleophila strain O used was varying between 0.1 to 5% w/v of the combination.
The biocontrol efficacy of the combination of the present invention on post-harvest fungal disease caused by green mold was evaluated. […] The harvested oranges were treated with the biocontrol combination and then subjected to drying in a drying tunnel. […] The oranges were treated by online spraying of each treatment. The biologically effective amount of Candida oleophila is 3×10^10 cfu/g of the combination. Each application is made at a rate 2 L/tonne of citrus fruits. The observations were made on the treated oranges and the untreated control at 36 days after storage.

With O=C([O-])O.[Na+] [Sodium bicarbonate] the “% decay on fruits” value was 15%.

From patent US20250143289A1, “BIO-CONTROL COMBINATIONS, COMPOSITIONS AND METHOD OF USE” (DECCO WORLDWIDE POST-HARVEST HOLDINGS B.V., priority 2022, published 2025)
